≈ marks a conversion by molar mass, not a printed value. Like-named read-outs stand apart in the source and are kept apart here.
Tests used:
[1] = tested on: M. mycetomatis genome strain MM55; test: CLSI M38-A2 based in vitro susceptibility screening (XTT or resazurin), growth at fixed concentration; assay type: cell-based, Madurella mycetomatis; settings: Madurella mycetomatis; for Percent fungal survival at 100 µM: replicate 2, M. mycetomatis MM55, read-out: Percentage survival at 100um, 100 uM A (second replicate column)
[2] = tested on: M. mycetomatis MM55; test: IC50 determination, 2-fold dilution series 16 to 0.03125 μM; assay type: cell-based, Madurella mycetomatis; settings: for IC50 / IC90: Madurella mycetomatis
[3] = tested on: ten different M. mycetomatis isolates; test: MIC / MIC50 determination (XTT) in ten M. mycetomatis isolates; assay type: cell-based, Madurella mycetomatis; settings: Madurella mycetomatis
[4] = tested on: M. mycetomatis isolate MM55; test: M. mycetomatis grain infection model in G. mellonella larvae, survival; assay type: in vivo, Galleria mellonella; set-up: In vivo efficacy, Larvae survival %: concentration or dose not given beside the values
[5] = mean of three, M. mycetomatis MM55, read-out: Percentage survival at 25um, 25 uM mean
[6] = replicate A, M. mycetomatis MM55, read-out: Percentage survival at 25um, 25 um A
[7] = replicate B, M. mycetomatis MM55, read-out: Percentage survival at 25um, 25 uM B
[8] = replicate C, M. mycetomatis MM55, read-out: Percentage survival at 25um, 25 uM C
[9] = mean of three, M. mycetomatis MM55, read-out: Percentage survival at 100um, 100 uM mean
[10] = replicate 1, M. mycetomatis MM55, read-out: Percentage survival at 100um, 100 uM A (first replicate column)
[11] = replicate 3, M. mycetomatis MM55, read-out: Percentage survival at 100um, 100 uM A (third replicate column)
[12] = MM55, Table 2, M. mycetomatis MM55, read-out: IC50
[13] = MM55, mean of replicates, read-out: IC50 mean
[14] = MM55, mean of replicates, read-out: IC90 mean
[15] = MM55, replicate 1, read-out: IC50 1 um
[16] = MM55, replicate 1, read-out: IC90 1 um
[17] = MM55, replicate 2, read-out: IC50 2 um
[18] = MM55, replicate 2, read-out: IC90 2 um
[19] = MM55, replicate 3, read-out: IC50 3 um
[20] = MM55, replicate 3, read-out: IC90 3 um
[21] = median MIC over ten M. mycetomatis isolates, no asterisk, read-out: MIC50
[22] = over the tested M. mycetomatis isolates, read-out: MIC50 mean
[23] = isolate CBS247.48, read-out: MIC CBS247.48
[24] = isolate MM14, read-out: MIC MM14
[25] = isolate MM45, read-out: MIC MM45
[26] = isolate MM55, read-out: MIC MM55
[27] = isolate ParijsAl1, read-out: MIC ParijsAl1
[28] = isolate Peru72012, read-out: MIC Peru72012
[29] = G. mellonella larvae infected with M. mycetomatis

IC50 [2, 12] | MIC50 [3, 21] | MIC [3, 23] | MIC [3, 24] | MIC [3, 25] | MIC [3, 26] | MIC ([3]; isolate P1, read-out: MIC P1) | MIC [3, 27] | MIC [3, 28] | MIC ([3]; isolate So1, read-out: MIC So1) | MIC ([3]; isolate i1, read-out: MIC i1) | MIC ([3]; isolate i11, read-out: MIC i11) | Structure (SMILES) | activity at 25 µM [1, 5] | activity at 25 µM [1, 6] | activity at 25 µM [1, 7] | activity at 25 µM [1, 8] | activity at 100 µM [1, 9] | activity at 100 µM [1, 10] | Percent fungal survival at 100 µM [1] | activity at 100 µM [1, 11] | other results
5.72 µM | 4 µM (≈ 1.27 µg/mL) | 4 µM (≈ 1.27 µg/mL) | 4 µM (≈ 1.27 µg/mL) | 4 µM (≈ 1.27 µg/mL) | 2 µM (≈ 0.635 µg/mL) | > 16 µM | 0.25 µM (≈ 0.0794 µg/mL) | 16 µM (≈ 5.08 µg/mL) | 2 µM (≈ 0.635 µg/mL) | 2 µM (≈ 0.635 µg/mL) | 16 µM (≈ 5.08 µg/mL) | CCC(C)(C)c1ccc(CC(C)CN2C[C@@H](C)O[C@@H](C)C2)cc1 (stereo partly drawn) [MMV1634358, Amorolfine, reference compound] | 0.888% | -0.194% | 0.287% | 2.57% | 8.96% | 0.903% | 2.35% | 23.6% | Drug static or cidal ([2]; M. mycetomatis): Static; IC50 [2, 13]: 5.72 µM; IC90 [2, 14]: 10.7 µM; IC50 [2, 15]: 2.45 µM; IC90 [2, 16]: 4.65 µM; IC50 [2, 17]: 11.7 µM; IC90 [2, 18]: 22.1 µM; IC50 [2, 19]: 3 µM; IC90 [2, 20]: 5.4 µM; MIC50 [3, 22]: 4 µM (≈ 1.27 µg/mL); In vivo efficacy, Enhanced survival compared to control? [4, 29]: no; In vivo efficacy, Larvae survival % [4, 29]: 11.1%
2.66 µM | 1 µM (≈ 0.527 µg/mL) | 16 µM (≈ 8.44 µg/mL) | 1 µM (≈ 0.527 µg/mL) | 1 µM (≈ 0.527 µg/mL) | 4 µM (≈ 2.11 µg/mL) | 2 µM (≈ 1.05 µg/mL) | 2 µM (≈ 1.05 µg/mL) | 4 µM (≈ 2.11 µg/mL) | 1 µM (≈ 0.527 µg/mL) | 0.25 µM (≈ 0.132 µg/mL) | 8 µM (≈ 4.22 µg/mL) | O[C@@](Cn1cnnn1)(c1ccc(F)cc1F)C(F)(F)c1ccc(-c2ccc(OCC(F)(F)F)cc2)cn1 [MMV1634386, Oteseconazole, reference compound] |  |  |  |  |  |  |  |  | activity at 25 µM ([1]; mean, read-out: Percentage survival at 25um, 25 uM mean): -1.26%; activity at 25 µM ([1]; replicate A, read-out: Percentage survival at 25um, 25 um A): -1.75%; activity at 25 µM ([1]; replicate B, read-out: Percentage survival at 25um, 25 uM B): -2.55%; activity at 25 µM ([1]; replicate C, read-out: Percentage survival at 25um, 25 uM C): 0.501%; activity at 100 µM ([1]; mean, read-out: Percentage survival at 100um, 100 uM mean): 7.07%; activity at 100 µM ([1]; replicate (first column), read-out: Percentage survival at 100um, 100 uM A): -1.99%; activity at 100 µM ([1]; replicate (second column), read-out: Percentage survival at 100um, 100 uM A): 9.06%; activity at 100 µM ([1]; replicate (third column), read-out: Percentage survival at 100um, 100 uM A): 14.2%; Drug static or cidal [2]: Cidal; IC50 ([2]; MM55, mean, read-out: IC50 mean): 2.66 µM; IC90 ([2]; MM55, read-out: IC90 mean): 5.17 µM; IC50 ([2]; MM55, replicate 1, read-out: IC50 1): 2.15 µM; IC90 ([2]; MM55, replicate 1, read-out: IC90 1): 5 µM; IC50 ([2]; MM55, replicate 2, read-out: IC50 2): 2.78 µM; IC90 ([2]; MM55, replicate 2, read-out: IC90 2): 5 µM; IC50 ([2]; MM55, replicate 3, read-out: IC50 3): 3.06 µM; IC90 ([2]; MM55, replicate 3, read-out: IC90 3): 5.5 µM; MIC50 ([3]; over the isolates tested, read-out: MIC50 mean): 1 µM (≈ 0.527 µg/mL); In vivo efficacy, Enhanced survival compared to control? ([4]; in vivo): no; In vivo efficacy, Larvae survival % ([4]; in vivo): 11.1%
2.81 µM | 1 µM (≈ 0.378 µg/mL) | 4 µM (≈ 1.51 µg/mL) | 4 µM (≈ 1.51 µg/mL) | 2 µM (≈ 0.755 µg/mL) | 4 µM (≈ 1.51 µg/mL) | 4 µM (≈ 1.51 µg/mL) | 4 µM (≈ 1.51 µg/mL) | 4 µM (≈ 1.51 µg/mL) | 4 µM (≈ 1.51 µg/mL) | 1 µM (≈ 0.378 µg/mL) | 4 µM (≈ 1.51 µg/mL) | O=C(/C(=C/c1ccc(Cl)cc1Cl)n1ccnc1)c1ccc(Cl)cc1 [MMV1634491] | 0.641% | -1.32% | 0.287% | 2.96% | 7.66% | -1.73% | 4.59% | 20.1% | Drug static or cidal ([2]; M. mycetomatis): Static; IC50 [2, 13]: 2.81 µM; IC90 [2, 14]: 4.7 µM; IC50 [2, 15]: 2.22 µM; IC90 [2, 16]: 4.36 µM; IC50 [2, 17]: 2.88 µM; IC90 [2, 18]: 4.78 µM; IC50 [2, 19]: 3.33 µM; IC90 [2, 20]: 4.95 µM; MIC50 [3, 22]: 4 µM (≈ 1.51 µg/mL); In vivo efficacy, Enhanced survival compared to control? [4, 29]: no; In vivo efficacy, Larvae survival % [4, 29]: 8.9%

— paper PMC8815882, “Screening the pandemic response box identified benzimidazole carbamates, Olorofim and ravuconazole as promising drug candidates for the treatment of eumycetoma” (PLoS Neglected Tropical Diseases, 2022)
